Experimental data from US10738028B2, “Spiro three-membered ring, spiro five-membered ring peptide deformylase inhibitor and use thereof in antibacteria and anti-tumor” (priority 2016, dated 2020).

Assays:
Format in all cases: cell-based
[1] = test system: Streptococcus pneoumoniae (SPN); test: MIC, two-fold agar dilution (CLSI), clinical isolates
Summary of the method: (§1)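 MIC values come from two-fold agar dilution run per CLSI antimicrobial susceptibility testing procedure.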

[2] = test system: Enterococcus faecalis (EFA); test: as above
Summary of the method: as §1

[3] = test system: methicillin-sensitive Staphylococcus epidermidis (MSSE); test: as above
Summary of the method: as §1

[4] = test system: Moraxella catarrhalis (BCA); test: as above
Summary of the method: as §1

[5] = test system: Enterococcus faecium (EFM); test: as above
Summary of the method: as §1

[6] = test system: methicillin-sensitive Staphylococcus aureus (MSSA); test: as above
Summary of the method: as §1

[7] = test system: methicillin-resistant Staphylococcus epidermidis (MRSE); test: as above
Summary of the method: as §1

[8] = test system: methicillin-resistant Staphylococcus aureus (MRSA); test: as above
Summary of the method: as §1

[9] = test system: Escherichia coli (including ESBLs, non-ESBLs); test: as above
Summary of the method: as §1

[10] = test system: HCT-116 colorectal cancer cell line; test: CCK-8 proliferation inhibition; details: Homo sapiens, HCT-116, 72 h, concentration of 30 μM; 72 hours; CCK-8; read-out: HCT116 inhibition rate/%
Summary of the method: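 Cells were plated overnight at 2000 cells/well, then compound in culture medium was added at a range of final concentrations. After 72 hours in a CO2 incubator, medium was replaced with 1:10 CCK-8 solution for the read-out.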

Q: For `CCCC[C@H](CC(=O)NO)C(=O)N1CC2(CC2)C[C@H]1C(=O)Nc1ncccc1F` [Example 49, (S)—N-(3-fluoropyridin-2-yl)-5-((R)-2-(2-(hydroxyamino)-2-oxoethyl)hexanoyl)-5-azaspiro[2.4]heptane-6-amide], which Anti-bacterial activity (MIC), strain SPN 16-2 ([1]; clinical isolate SPN 16-2) is on record?
A: 4 µg/mL

Q: And the Anti-bacterial activity (MIC), strain SPN 16-4 ([1]; clinical isolate SPN 16-4)?
A: 4 µg/mL

Q: And the Anti-bacterial activity (MIC), strain EFA 15-1 ([2]; clinical isolate EFA 15-1)?
A: > 32 µg/mL

Q: And the Anti-bacterial activity (MIC), strain EFA 15-2 ([2]; clinical isolate EFA 15-2)?
A: > 32 µg/mL

Q: What about the Anti-bacterial activity (MIC), strain EFA 15-3 ([2]; clinical isolate EFA 15-3) of the same molecule?
A: > 32 µg/mL

Q: And the Anti-bacterial activity (MIC), strain EFA 15-4 ([2]; clinical isolate EFA 15-4)?
A: > 32 µg/mL

Q: What about the Anti-bacterial activity (MIC), strain EFA 15-5 ([2]; clinical isolate EFA 15-5) of the same molecule?
A: > 32 µg/mL

Q: And the Anti-bacterial activity (MIC), strain EFA 15-6 ([2]; clinical isolate EFA 15-6)?
A: > 32 µg/mL

Q: And the Anti-bacterial activity (MIC), strain EFA 15-9 ([2]; clinical isolate EFA 15-9)?
A: > 32 µg/mL

Q: And the Anti-bacterial activity (MIC), strain MSSE 15-3 ([3]; clinical isolate MSSE 15-3)?
A: > 32 µg/mL

Q: What about the Anti-bacterial activity (MIC), strain MSSE 15-4 ([3]; clinical isolate MSSE 15-4) of the same molecule?
A: > 32 µg/mL

Q: What about the Anti-bacterial activity (MIC), strain MSSE 15-5 ([3]; clinical isolate MSSE 15-5) of the same molecule?
A: > 32 µg/mL

Q: And the Anti-bacterial activity (MIC), strain MSSE 15-6 ([3]; clinical isolate MSSE 15-6)?
A: > 32 µg/mL

Q: And the Anti-bacterial activity (MIC), strain BCA 14-1 ([4]; clinical isolate BCA 14-1)?
A: > 32 µg/mL

Q: What about the Anti-bacterial activity (MIC), strain BCA 14-4 ([4]; clinical isolate BCA 14-4) of the same molecule?
A: > 32 µg/mL

Q: And the Anti-bacterial activity (MIC), strain BCA 14-5 ([4]; clinical isolate BCA 14-5)?
A: 4 µg/mL

Q: And the Anti-bacterial activity (MIC), strain BCA 14-6 ([4]; clinical isolate BCA 14-6)?
A: > 32 µg/mL

Q: And the Anti-bacterial activity (MIC), strain BCA 14-7 ([4]; clinical isolate BCA 14-7)?
A: > 32 µg/mL

Q: And the Anti-bacterial activity (MIC), strain BCA 14-8 ([4]; clinical isolate BCA 14-8)?
A: > 32 µg/mL

Q: What about the Anti-bacterial activity (MIC), strain BCA 14-10 ([4]; clinical isolate BCA 14-10) of the same molecule?
A: > 32 µg/mL

Q: What about the Anti-bacterial activity (MIC), strain EFM 15-1 ([5]; clinical isolate EFM 15-1) of the same molecule?
A: > 32 µg/mL

Q: What about the Anti-bacterial activity (MIC), strain EFM 15-2 ([5]; clinical isolate EFM 15-2) of the same molecule?
A: > 32 µg/mL

Q: What about the Anti-bacterial activity (MIC), strain EFM 15-3 ([5]; clinical isolate EFM 15-3) of the same molecule?
A: > 32 µg/mL

Q: What about the Anti-bacterial activity (MIC), strain EFM 15-4 ([5]; clinical isolate EFM 15-4) of the same molecule?
A: > 32 µg/mL

Q: What about the Anti-bacterial activity (MIC), strain EFM 15-5 ([5]; clinical isolate EFM 15-5) of the same molecule?
A: 2 µg/mL

Q: And the Anti-bacterial activity (MIC), strain EFM 15-6 ([5]; clinical isolate EFM 15-6)?
A: 2 µg/mL

Q: And the Anti-bacterial activity (MIC), strain MSSA 15-3 ([6]; clinical isolate MSSA 15-3)?
A: 16 µg/mL

Q: What about the Anti-bacterial activity (MIC), strain MSSA 15-4 ([6]; clinical isolate MSSA 15-4) of the same molecule?
A: 16 µg/mL

Q: And the Anti-bacterial activity (MIC), strain MSSA 15-5 ([6]; clinical isolate MSSA 15-5)?
A: > 32 µg/mL

Q: What about the Anti-bacterial activity (MIC), strain MSSA 15-6 ([6]; clinical isolate MSSA 15-6) of the same molecule?
A: > 32 µg/mL

Q: What about the Anti-bacterial activity (MIC), strain MRSE 15-1 ([7]; clinical isolate MRSE 15-1) of the same molecule?
A: > 32 µg/mL

Q: And the Anti-bacterial activity (MIC), strain MRSE 15-2 ([7]; clinical isolate MRSE 15-2)?
A: > 32 µg/mL

Q: What about the Anti-bacterial activity (MIC), strain MRSE 15-3 ([7]; clinical isolate MRSE 15-3) of the same molecule?
A: > 32 µg/mL

Q: What about the Anti-bacterial activity (MIC), strain MRSE 15-7 ([7]; clinical isolate MRSE 15-7) of the same molecule?
A: > 32 µg/mL

Q: What about the Anti-bacterial activity (MIC), strain MRSA 15-1 ([8]; clinical isolate MRSA 15-1) of the same molecule?
A: 8 µg/mL

Q: And the Anti-bacterial activity (MIC), strain MRSA 15-3 ([8]; clinical isolate MRSA 15-3)?
A: 16 µg/mL

Q: And the Anti-bacterial activity (MIC), strain MRSA 15-4 ([8]; clinical isolate MRSA 15-4)?
A: 16 µg/mL

Q: And the Anti-bacterial activity (MIC), strain ECO+ 15-1 ([9]; clinical isolate ECO+ 15-1)?
A: > 32 µg/mL

Q: And the Anti-bacterial activity (MIC), strain ECO+ 15-2 ([9]; clinical isolate ECO+ 15-2)?
A: > 32 µg/mL

Q: What about the Anti-bacterial activity (MIC), strain ECO+ 15-3 ([9]; clinical isolate ECO+ 15-3) of the same molecule?
A: > 32 µg/mL

Q: What about the Anti-bacterial activity (MIC), strain ECO+ 15-4 ([9]; clinical isolate ECO+ 15-4) of the same molecule?
A: > 32 µg/mL

Q: And the Anti-bacterial activity (MIC), strain ECO− 15-1 ([9]; clinical isolate ECO− 15-1)?
A: > 32 µg/mL

Q: And the Anti-bacterial activity (MIC), strain ECO− 15-2 ([9]; clinical isolate ECO− 15-2)?
A: > 32 µg/mL

Q: What about the Anti-bacterial activity (MIC), strain ECO− 15-3 ([9]; clinical isolate ECO− 15-3) of the same molecule?
A: > 32 µg/mL

Q: And the Anti-bacterial activity (MIC), strain ECO− 15-4 ([9]; clinical isolate ECO− 15-4)?
A: > 32 µg/mL

Q: And the inhibition at 30 µM [10]?
A: 8%
